Key:
[1] = Metabolic stability assay in mouse liver microsomes; format: in vitro ADME; settings: in words
Experimental: (§1) Compounds 3-10, 15, 17, and 20-22 (2.0 μM) were incubated in the mouse or human liver microsomes (0.5 mg protein/mL) at 37° C. […] The reaction mixtures were centrifuged at rcf 15,000 for 15 min. […] The column temperature was maintained at 40° C. […] Q Exactive MS was operated in positive or negative mode with electrospray ionization.

BRDT-BD2 = BRDT-BD2 (Homo sapiens (Human), UniProt Q58F21); assay: AlphaScreen bromodomain proximity assay (competition with biotinylated (+)-JQ1), BRDT-BD2; format: binding
[2] = Metabolic stability assay in human liver microsomes; format: in vitro ADME; settings: in words
Experimental: as §1

BRDT-BD1 = BRDT-BD1 (Homo sapiens (Human), UniProt Q58F21); assay: AlphaScreen bromodomain proximity assay (competition with biotinylated (+)-JQ1), BRDT-BD1; format: binding; settings: NE: no effect at 10 μM
His-BRDT-BD2 = His-BRDT-BD2 (Homo sapiens (Human), UniProt Q58F21); settings: 0 = theoretically present in the library but not detected in the sequencing data

Structure (SMILES)	mouse microsomal stability [1]	IC50 (BRDT-BD2)	human microsomal stability [2]	IC50 (BRDT-BD1)	Count (observed molecule count in the DEC-Tec screen against BRDT-BD2) (His-BRDT-BD2)
CNC(=O)c1ccc(C(=O)Nc2cc(NC(=O)c3ccc4c(c3)c(-c3ccc(N)nc3)nn4C)ccc2C)cc1 [compound 10, N^1-(5-(3-(6-Aminopyridin-3-yl)-1-methyl-1H-indazole-5-carboxamido)-2-methylphenyl)-N^4-methylterephthalamide]	high metabolic stability	17 nM	high metabolic stability	> 10000 nM	3
COc1ccc(NC(=O)c2ccc3c(c2)c(-c2ccc(N)cc2C)nn3C)cc1 [compound 24, 3-(4-Amino-2-methylphenyl)-N-(4-methoxyphenyl)-1-methyl-1H-indazole-5-carboxamide]	–	54 nM	–	> 10000 nM	–
CC(=O)Nc1cccc(NC(=O)c2ccc3c(c2)c(-c2ccc(N)cc2C)nn3C)c1 [compound 21, N-(3-Acetamidophenyl)-3-(4-amino-2-methylphenyl)-1-methyl-1H-indazole-5-carboxamide]	high mouse microsomal stability	14 nM	–	> 10000 nM	–
CNC(=O)c1cc(NC(=O)c2ccc3c(c2)c(-c2ccc(N)cc2C)nn3C)ccc1C [compound 22, 3-(4-Amino-2-methylphenyl)-1-methyl-N-(4-methyl-3-(methylcarbamoyl)phenyl)-1H-indazole-5-carboxamide]	high mouse microsomal stability	18 nM	–	> 10000 nM	–
Cc1cc(N)ccc1-c1nn(C)c2ccc(C(=O)Nc3ccccc3)cc12 [compound 25, 3-(4-Amino-2-methylphenyl)-1-methyl-N-phenyl-1H-indazole-5-carboxamide]	–	90 nM	–	> 10000 nM	–
CNC(=O)c1ccc2c(c1)c(-c1ccc(N)cc1C)nn2C [compound 55, 3-(4-Amino-2-methylphenyl)-N,1-dimethyl-1H-indazole-5-carboxamide]	–	988 nM	–	> 10000 nM	–
CCn1nc(-c2ccc(N)nc2)c2cc(C(=O)Nc3ccc(C)c(NC(C)=O)c3)ccc21 [compound 18, N-(3-Acetamido-4-methylphenyl)-3-(6-aminopyridin-3-yl)-1-ethyl-1H-indazole-5-carboxamide]	–	79 nM	–	> 10000 nM	–
Cc1ccc(-c2ccc3c(c2)c(-c2ccc(N)cc2C)nn3C)cn1 [compound 79, 3-Methyl-4-(1-methyl-5-(6-methylpyridin-3-yl)-1H-indazol-3-yl)aniline]	–	> 10000 nM	–	3210 nM	–
COc1ccc(NC(=O)c2ccc3c(c2)c(-c2ccc(N)cc2C)nn3C)cc1NC(=O)c1ccccc1 [compound 23, 3-(4-Amino-2-methylphenyl)-N-(3-benzamido-4-methoxyphenyl)-1-methyl-1H-indazole-5-carboxamide]	–	35 nM	–	> 10000 nM	–
COc1ccc(-c2ccc3c(c2)c(-c2ccc(N)cc2C)nn3C)cn1 [compound 80, 4-(5-(6-Methoxypyridin-3-yl)-1-methyl-1H-indazol-3-yl)-3-methylaniline]	–	> 10000 nM	–	1020 nM	–
CC(=O)Nc1cc(NC(=O)c2ccc3c(c2)c(-c2ccc(N)nc2)nn3C(C)C)ccc1C [compound 19, N-(3-Acetamido-4-methylphenyl)-3-(6-aminopyridin-3-yl)-1-isopropyl-1H-indazole-5-carboxamide]	–	253 nM	–	> 10000 nM	–
COc1ccc(N(C)C(=O)c2ccc3c(c2)c(-c2ccc(N)cc2C)nn3C)cc1 [compound 26, 3-(4-Amino-2-methylphenyl)-N-(4-methoxyphenyl)-N,1-dimethyl-1H-indazole-5-carboxamide]	–	> 1000 nM	–	> 10000 nM	–
CNC(=O)c1ccc(C(=O)Nc2cc(NC(=O)c3ccc4c(c3)c(-c3ccc(OC)cc3)nn4C)ccc2C)cc1 [compound 11]	–	521 nM	–	> 10000 nM	–
CNC(=O)c1ccc(C(=O)Nc2cc(NC(=O)c3ccc4c(c3)c(-c3cc5ccccc5n3C)nn4C)ccc2C)cc1 [compound 8, N^1-Methyl-N^4-(2-methyl-5-(1-methyl-3-(1-methyl-1H-indol-2-yl)-1H-indazole-5-carboxamido)phenyl)terephthalamide]	–	13 nM	–	> 10000 nM	846
CNC(=O)c1ccc(C(=O)Nc2cc(NC(=O)c3ccc4c(c3)c(-c3cnc(N)cc3C)nn4C)ccc2C)cc1 [compound 15]	high mouse microsomal stability	22 nM	–	–	–
CNC(=O)c1ccc(C(=O)Nc2cc(NC(=O)c3ccc4c(c3)c(-c3ccncc3)nn4C)ccc2C)cc1 [compound 12, N^1-Methyl-N^4-(2-methyl-5-(1-methyl-3-(pyridin-4-yl)-1H-indazole-5-carboxamido)phenyl)terephthalamide]	–	978 nM	–	> 10000 nM	0

Structure (SMILES)	mouse microsomal stability [1]	IC50 (BRDT-BD2)	human microsomal stability [2]	IC50 (BRDT-BD1)	Count (observed molecule count in the DEC-Tec screen against BRDT-BD2) (His-BRDT-BD2)
Cc1cc(N)ccc1-c1nn(C)c2ccc(-c3cccnc3)cc12 [compound 78, 3-Methyl-4-(1-methyl-5-(pyridin-3-yl)-1H-indazol-3-yl)aniline]	–	> 10000 nM	–	2440 nM	–
CC(=O)Nc1cc(NC(=O)c2ccc3c(c2)c(-c2ccc(N)nc2)nn3C)ccc1C [compound 17, N-(3-Acetamido-4-methylphenyl)-3-(6-aminopyridin-3-yl)-1-methyl-1H-indazole-5-carboxamide]	high mouse microsomal stability	47 nM	–	> 10000 nM	–
CNC(=O)c1ccc2c(c1)c(-c1cc3ccccc3n1C)nn2C [compound 67, N,1-Dimethyl-3-(1-methyl-1H-indol-2-yl)-1H-indazole-5-carboxamide]	–	261 nM	–	> 10000 nM	–
COc1ccc(NC(=O)c2ccc3nn(C)c(-c4ccc(N)cc4C)c3c2)cc1 [compound 27, 3-(4-Amino-2-methylphenyl)-N-(4-methoxyphenyl)-2-methyl-2H-indazole-5-carboxamide]	–	17200 nM	–	> 10000 nM	–
CNC(=O)c1ccc(C(=O)Nc2cc(NC(=O)c3ccc4c(c3)c(-c3cnc(N)nc3)nn4C)ccc2C)cc1 [compound 13, N^1-(5-(3-(2-Aminopyrimidin-5-yl)-1-methyl-1H-indazole-5-carboxamido)-2-methylphenyl)-N^4-methylterephthalamide]	–	139 nM	–	> 10000 nM	–
CC(=O)Nc1cc(NC(=O)c2ccc3c(c2)c(-c2ccc(Cl)cc2C)nn3C)ccc1C [compound 41, N-(3-Acetamido-4-methylphenyl)-3-(4-chloro-2-methylphenyl)-1-methyl-1H-indazole-5-carboxamide]	–	58 nM	–	–	–
COc1ccc(NC(=O)c2ccc3c(c2)c(-c2cc4ccccc4n2C)nn3C)c(C)c1 [compound 33, N-(4-Methoxy-2-methylphenyl)-1-methyl-3-(1-methyl-1H-indol-2-yl)-1H-indazole-5-carboxamide]	–	183 nM	–	–	–
CNC(=O)c1ccc(C(=O)Nc2cc(NC(=O)c3ccc4c(c3)c(-c3ccc(N)cc3C)nn4C)ccc2C)cc1 [compound 9, N^1-(5-(3-(4-Amino-2-methylphenyl)-1-methyl-1H-indazole-5-carboxamido)-2-methylphenyl)-N^4-methylterephthalamide]	–	–	high metabolic stability	–	–
CC(=O)N1CCC(NC(=O)c2ccc3c(c2)c(-c2ccc(N)nc2)nn3C)CC1 [compound 51, N-(1-Acetylpiperidin-4-yl)-3-(6-aminopyridin-3-yl)-1-methyl-1H-indazole-5-carboxamide]	–	> 200 nM	–	–	–
Cc1cc(N)ccc1-c1nn(C)c2ccc(-c3cnc(C(F)(F)F)nc3)cc12 [compound 77, 3-Methyl-4-(1-methyl-5-(2-(trifluoromethyl)pyrimidin-5-yl)-1H-indazol-3-yl)aniline]	–	3630 nM	–	> 10000 nM	–
Cc1cc(N)ccc1-c1nn(C)c2ccc(C(=O)Nc3ccc(Cl)cc3)cc12 [compound 64, 3-(4-Amino-2-methylphenyl)-N-(4-chlorophenyl)-1-methyl-1H-indazole-5-carboxamide]	–	209 nM	–	–	–
Cc1cc(N)ccc1-c1nn(C)c2ccc(C(=O)Nc3ccc(OCC4CC4)cc3)cc12 [compound 65, 3-(4-Amino-2-methylphenyl)-N-(4-(cyclopropylmethoxy)phenyl)-1-methyl-1H-indazole-5-carboxamide]	–	98 nM	–	> 10000 nM	–
Cc1ccc(NC(=O)c2ccc3c(c2)c(-c2ccc(N)cc2C)nn3C)cc1NS(C)(=O)=O [compound 58, 3-(4-Amino-2-methylphenyl)-1-methyl-N-(4-methyl-3-(methylsulfonamido)phenyl)-1H-indazole-5-carboxamide]	–	67 nM	–	–	–
CNC(=O)c1ccc(C(=O)Nc2cc(NC(=O)c3ccc4c(c3)c(-c3ccc(N5CCOCC5)nc3)nn4C)ccc2C)cc1 [compound 39, N^1-Methyl-N^4-(2-methyl-5-(1-methyl-3-(6-morpholinopyridin-3-yl)-1H-indazole-5-carboxamido)phenyl)terephthalamide]	–	> 10000 nM	–	–	–
COc1ccc(NC(=O)c2ccc3c(c2)c(-c2cc4ccccc4n2C)nn3C)cc1NC(C)=O [compound 74, N-(3-Acetamido-4-methoxyphenyl)-1-methyl-3-(1-methyl-1H-indol-2-yl)-1H-indazole-5-carboxamide]	–	32 nM	–	–	–
CNC(=O)c1ccc(C(=O)Nc2cc(NC(=O)c3ccc4c(c3)c(-c3ccc(N5CCNCC5)nc3)nn4C)ccc2C)cc1 [compound 38]	–	> 10000 nM	–	–	–
